According to patent publication US20020019387A1, “Vitronectin receptor antagonist” (SmithKline Beecham Corporation, priority 1997, published 2002):

Biological target: T1, αvβ3 (vitronectin receptor) (Homo sapiens, UniProt P05106+P06756)
T1 construct: Human placenta or human platelet αvβ3 (0.1-0.3 mg/mL) in buffer T; from tissue; host or cells: human placenta or human platelets
Experiment: Solid-Phase [3H]-SK&F-107260 Binding to αvβ3
Settings: read-out: concentration at which the compound inhibits vitronectin binding to SK&F 107260
Experimental: Solid-Phase [^3H]-SK&F-107260 Binding to αvβ3: Human placenta or human platelet αvβ3 (0.1-0.3 mg/mL) in buffer T (containing 2 mM CaCl2 and 1% octylglucoside) was diluted with buffer T containing 1 mM CaCl2, 1 mM MnCl2, 1 mM MgCl2 (buffer A) and 0.05% NaN3, and then immediately added to 96-well ELISA plates (Corning, New York, N.Y.) at 0.1 mL per well. 0.1-0.2 μg of αvβ3 was added per well. The plates were incubated overnight at 4° C. At the time of the experiment, the wells were washed once with buffer A and were incubated with 0.1 mL of 3.5% bovine serum albumin in the same buffer for 1 hr at room temperature. Following incubation the wells were aspirated completely and washed twice with 0.2 mL buffer A. […]
The plates were incubated for 1 hr at room temperature. […] The receptors were solubilized with 0.1 mL of 1% SDS and the bound [^3H]-SK&F-107260 was determined by liquid scintillation counting with the addition of 3 mL Ready Safe in a Beckman LS Liquid Scintillation Counter, with 40% efficiency. Nonspecific binding of [^3H]-SK&F-107260 was determined in the presence of 2 μM SK&F-107260 and was consistently less than 1% of total radioligand input. […] The Ki (dissociation constant of the antagonist) was calculated according to the equation: Ki=IC50/(1+L/Kd), where L and Kd were the concentration and the dissociation constant of [^3H]-SK&F-107260, respectively.

T1 sequence (P06756 31-889 limits assumed): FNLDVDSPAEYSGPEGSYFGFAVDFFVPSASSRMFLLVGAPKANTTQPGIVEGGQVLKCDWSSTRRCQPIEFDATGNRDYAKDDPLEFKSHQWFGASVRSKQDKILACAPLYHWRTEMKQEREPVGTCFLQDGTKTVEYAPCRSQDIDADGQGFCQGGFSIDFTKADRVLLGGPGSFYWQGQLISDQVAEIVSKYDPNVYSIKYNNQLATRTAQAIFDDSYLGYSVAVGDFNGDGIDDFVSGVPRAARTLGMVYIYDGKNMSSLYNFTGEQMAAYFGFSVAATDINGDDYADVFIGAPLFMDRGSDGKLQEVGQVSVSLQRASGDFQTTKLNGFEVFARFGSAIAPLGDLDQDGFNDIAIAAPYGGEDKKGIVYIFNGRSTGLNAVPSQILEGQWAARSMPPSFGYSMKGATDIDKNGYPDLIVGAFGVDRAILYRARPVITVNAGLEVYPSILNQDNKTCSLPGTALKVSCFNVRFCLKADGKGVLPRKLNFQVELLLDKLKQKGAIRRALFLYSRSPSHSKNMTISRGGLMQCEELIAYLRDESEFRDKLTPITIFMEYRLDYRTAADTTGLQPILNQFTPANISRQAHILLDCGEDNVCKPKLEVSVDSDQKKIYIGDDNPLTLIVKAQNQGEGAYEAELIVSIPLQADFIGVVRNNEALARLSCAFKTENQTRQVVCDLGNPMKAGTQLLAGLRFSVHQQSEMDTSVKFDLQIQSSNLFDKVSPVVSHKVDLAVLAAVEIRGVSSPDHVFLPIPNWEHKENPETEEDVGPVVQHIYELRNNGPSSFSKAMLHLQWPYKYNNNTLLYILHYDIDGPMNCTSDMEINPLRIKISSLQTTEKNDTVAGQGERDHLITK
T1 sequence (P06756 891-1048 partner limits assumed): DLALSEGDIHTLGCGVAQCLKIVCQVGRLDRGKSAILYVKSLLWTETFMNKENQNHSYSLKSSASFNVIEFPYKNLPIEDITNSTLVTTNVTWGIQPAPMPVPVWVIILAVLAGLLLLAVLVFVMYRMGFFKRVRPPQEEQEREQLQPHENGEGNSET
T1 sequence (P05106 27-788): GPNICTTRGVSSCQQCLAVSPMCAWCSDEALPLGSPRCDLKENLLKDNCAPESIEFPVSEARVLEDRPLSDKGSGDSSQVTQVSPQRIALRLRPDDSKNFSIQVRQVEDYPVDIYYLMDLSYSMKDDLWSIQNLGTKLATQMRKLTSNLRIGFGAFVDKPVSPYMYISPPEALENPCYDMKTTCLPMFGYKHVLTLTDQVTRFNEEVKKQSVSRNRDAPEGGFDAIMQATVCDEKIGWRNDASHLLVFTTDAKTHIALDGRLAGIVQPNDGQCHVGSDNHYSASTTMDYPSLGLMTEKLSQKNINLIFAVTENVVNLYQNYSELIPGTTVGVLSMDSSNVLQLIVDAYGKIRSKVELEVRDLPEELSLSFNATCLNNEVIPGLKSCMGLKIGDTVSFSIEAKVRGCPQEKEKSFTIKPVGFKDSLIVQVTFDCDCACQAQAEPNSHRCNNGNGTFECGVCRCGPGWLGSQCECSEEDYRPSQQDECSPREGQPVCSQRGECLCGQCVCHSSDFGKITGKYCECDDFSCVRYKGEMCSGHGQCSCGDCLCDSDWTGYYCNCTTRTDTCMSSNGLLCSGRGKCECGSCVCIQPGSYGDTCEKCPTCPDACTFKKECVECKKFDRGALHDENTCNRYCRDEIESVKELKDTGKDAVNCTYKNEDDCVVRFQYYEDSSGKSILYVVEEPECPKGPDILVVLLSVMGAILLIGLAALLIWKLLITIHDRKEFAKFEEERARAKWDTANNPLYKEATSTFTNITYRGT

IC50: ~3 nM
SMILES: O=C(O)C[C@@H]1Cc2ccc(OCCCNc3ccccn3)cc2CN(Cc2ccc(F)c(F)c2F)C1=O [Example 1, (S)-3-oxo-8-[3-(pyridin-2-ylamino)-1-propyloxy]-2-(2,3,4-trifluorobenzyl)-2,3,4,5-tetrahydro-1H-2-benzazepine-4-acetic acid]
